From US6913708B2, “Cholesteric liquid crystal drying process and solvent” (3M Innovative Properties Company, priority 2003, dated 2005)

Test: Solubility of cholesteric liquid crystal monomer in hot (boiling) solvents
Format: physicochemical
Method: Comparison of the Solubility of Various Monomers in 1,3-dioxolane and other Solvents.
4-(2-Acryloyloxy-ethoxy)-benzoic acid 4′-cyano-biphenyl-4-yl ester is a cholesteric liquid crystal monomer with the structure given below and can be prepared as described in European Patent Application Publication No. 834754, incorporated herein by reference. [drawing 2]
4-(2-Acryloyloxy-ethoxy)-benzoic acid 4′-cyano-biphenyl-4-yl ester was dissolved in hot (boiling) tetrahydrofuran and hot 1,3-dioxolane. Only 20% of the monomer dissolved in the tetrahydrofuran, while 40% dissolved in the 1,3-dioxolane.

For `C=CC(=O)OCCOc1ccc(C(=O)Oc2ccc(-c3ccc(C#N)cc3)cc2)cc1` [4-(2-Acryloyloxy-ethoxy)-benzoic acid 4′-cyano-biphenyl-4-yl ester], the “fraction of the monomer dissolved” value (hot 1,3-dioxolane) was 40% and the “fraction of the monomer dissolved” value (hot (boiling) tetrahydrofuran) was 20%.
